Our source for the Drug metabolism, Rf and Activity values is ChEMBL document CHEMBL3243959, “In vitro metabolism of a new 4-hydroxycoumarin anticoagulant. Structure of an unusual metabolite” (J Med Chem, 1977).

SMILES strings stand for the structures. Calls of active or inactive are those of the source. The rule behind the calls is not given here.

Series [1] concerns Liver microsome. In words: Drug level in Wistar albino rat liver microsomes treated with clocoumarol at 5 umol after 30 mins TLC analysis in presence of NADPH generating system. Type of series: ADME. The conditions noted are these: 0.5 h.
Series [2] is described as follows: Retardation factor of the compound in 9:1 v/v benzene-ethyl acetate solvent system by TLC analysis. The class given is physicochemical.
Series [3] can be described thus: Retardation factor of the compound in 9:1 v/v dichloroethane-acetone solvent system by TLC analysis. The class given is physicochemical.
Series [4] can be described thus: Retardation factor of the compound in 20:3 v/v benzene-acetic acid solvent system by TLC analysis. The class given is physicochemical.
A short description of series [5]: Drug level in Duncan-Hartley guinea pig liver microsomes treated with clocoumarol at 5 umol after 30 mins by TLC analysis in presence of NADPH generating system. Type of series: ADME, Cavia porcellus. The settings on record: 0.5 h. In general terms: Liver microsomes are a subcellular fraction often used to study metabolism.
Series [6] in a line: Drug level in CBRI mouse liver microsomes treated with clocoumarol at 5 umol after 30 mins by TLC analysis in presence of NADPH generating system. The class given is ADME. The settings on record: 0.5 h.
Series [7] deals with Liver microsome. In words: Drug level in Wistar albino rat washed liver microsomal fraction treated with clocoumarol at 5 umol after 30 mins by TLC analysis. Type of series: ADME. The settings on record: microsomes, 0.5 h.
The subject of series [8] is Liver microsome. In words: Drug metabolism Wistar albino rat liver microsomes assessed as formation of 6-[1-Hydroxy-2-oxo-3-[p-(2-chloroethyl)phenyl]hexylidene]-2,4-cyclohexadien-1-one at 5 umol after 30 mins by TLC analysis in presence of carbon monooxide. The class given is ADME. The settings on record: 0.5 h.
In series [9] the test system is Liver microsome. The series is described as follows: Drug level in Wistar albino rat liver microsomes treated with clocoumarol at 5 umol after 30 mins by TLC analysis in presence of NADP/NAD/NADH/oxygen. The settings on record: 0.5 h. Type of series: ADME.
Series [10] deals with Rattus norvegicus. The series is described as follows: Anticoagulant activity in rat at 100 x 0.25 mg/kg, ip. The class given is functional, organism-based. The arrangement: dose 0.25 mg/kg.
Series [11] in a line: Drug metabolism in Duncan-Hartley guinea pig liver microsomes assessed as formation of 6-[1-Hydroxy-2-oxo-3-[p-(2-chloroethyl)phenyl]hexylidene]-2,4-cyclohexadien-1-one at 5 umol after 30 mins by TLC analysis in presence of NADPH generating system. Type of series: ADME, Cavia porcellus. The settings on record: 0.5 h.
Series [12] in a line: Drug metabolism in CBRI mouse liver microsomes assessed as formation of 6-[1-Hydroxy-2-oxo-3-[p-(2-chloroethyl)phenyl]hexylidene]-2,4-cyclohexadien-1-one at 5 umol after 30 mins by TLC analysis in presence of NADPH generating system. The conditions noted are these: 0.5 h. The class given is ADME.
Series [13] has as its system Liver microsome. The series is described as follows: Drug metabolism in Wistar albino rat liver microsomes assessed as formation of 6-[1-Hydroxy-2-oxo-3-[p-(2-chloroethyl)phenyl]hexylidene]-2,4-cyclohexadien-1-one at 5 umol after 30 mins by TLC analysis in presence of NADP/NAD/NADH/oxygen. The class given is ADME. The conditions noted are these: 0.5 h.
For series [14], the system named is Liver microsome. The series is described as follows: Drug metabolism in Wistar albino rat liver microsomes assessed as formation of 6-[1-Hydroxy-2-oxo-3-[p-(2-chloroethyl)phenyl]hexylidene]-2,4-cyclohexadien-1-one at 5 umol after 30 mins by TLC analysis in presence of nitrogen. The class given is ADME. The conditions noted are these: 0.5 h.
Series [15] concerns Liver microsome. In words: Drug metabolism in Wistar albino rat washed liver microsomal fraction assessed as formation of 6-[1-Hydroxy-2-oxo-3-[p-(2-chloroethyl)phenyl]hexylidene]-2,4-cyclohexadien-1-one at 5 umol after 30 mins by TLC analysis. Type of series: ADME. The settings on record: microsomes, 0.5 h.
A short description of series [16]: Drug metabolism in Wistar albino rat liver nuclear fraction assessed as formation of 6-[1-Hydroxy-2-oxo-3-[p-(2-chloroethyl)phenyl]hexylidene]-2,4-cyclohexadien-1-one at 5 umol after 30 mins by TLC analysis. The class given is ADME. The settings on record: 0.5 h.
Series [17] in a line: Drug metabolism in Wistar albino rat mitochondrial fraction assessed as formation of 6-[1-Hydroxy-2-oxo-3-[p-(2-chloroethyl)phenyl]hexylidene]-2,4-cyclohexadien-1-one at 5 umol after 30 mins by TLC analysis. The class given is ADME, Mitochondria. The settings on record: 0.5 h.
The test system of series [18] is Liver microsome. In words: Drug metabolism in Wistar albino rat liver soluble microsomal fraction assessed as formation of 6-[1-Hydroxy-2-oxo-3-[p-(2-chloroethyl)phenyl]hexylidene]-2,4-cyclohexadien-1-one. The class given is ADME. The conditions noted are these: microsomes.

As to `CCCC(C(=O)/C(O)=C1\C=CC=CC1=O)c1ccc(CCCl)cc1` (stereo unspecified), the Drug metabolism result in series [1] is recorded as “metabolite_detected”; in series [5], “metabolite_detected”; in [6], “metabolite_detected”; in [7], “metabolite_detected”; in [8], “metabolite_notdetected”; in series [9] it was “metabolite_detected”. The Rf amounted to 0.44 in [2], 0.61 in [3] and 0.74 in series [4]. Moreover, the result in series [10] was inactive.

With `CCCC(c1ccc(CCCl)cc1)c1c(O)c2ccccc2oc1=O` (stereo unspecified) [CLOCOUMAROL], the Rf in series [2] turned out to be 0.33; in [3], 0.53; in series [4] it was 0.67. Moreover, the Drug metabolism entry in series [11] is on record as “metabolite_detected”; in [12], “metabolite_detected”; in [13], “metabolite_detected”; in [14], “metabolite_notdetected”; in series [15], “metabolite_detected”; in series [16], “metabolite_notdetected”. Also, the Drug metabolism entry in series [17] and in [18] was “metabolite_notdetected” each time.
